Measurements taken from patent US20020071842A1, “Soluble CD1 compositions and uses thereof” (priority 2000, published 2002).

Columns and labels:
Assay in all cases: Plate-bound mCD1d fusion protein hybridoma stimulation assay (IL-2 ELISA)
Format in all cases: cell-based, mouse
24.8.A hybridoma = settings: for IL-2 secretion: 24.8 A NKT hybridoma, plate-bound mCD1d-IgGFc2a fusion protein preincubated with lipid antigen; for IL-2 response to mCD1d fusion protein pre-treated with purified or synthetic lipid: 24.8.A hybridoma, compared to untreated or buffer treated fusion protein
Excerpt: (§1) The CD1d-restricted T cell clones 24.7, 24.8, 24.9 (NKT cell) and 14S.6, 14S.7, 14S.10, and 14S.15 (diverse TCRs) were all derived from spleen of wild type C57BL/6 mice, as described previously (Behar, S. M. et al., J. Immunol., 162:161-7 (1999)). To generate T cell hybridomas, the activated T cells were fused to the aminopterin-sensitive BW5147 αβTCR^− thymoma cell line using PEG1500, and hybrids were selected in HAT medium (Life Technologies, Gaithersburg, Md.). Resulting TT hybridomas were tested for recognition of RMA-S cells transfected with mCD1D1 compared to untransfected RMA-S cells, as described below. […] The hybridomas are distinguished from the original T cell clones by the addition of a letter to their names. The KT/7, KT/12, KT/22, and KT/23 and Vβ/9 NKT cell hybridomas were derived from NK1.1^+ T cells enriched from spleen of C57BL/6 mice by depletion of CD8+ T cells, naive T cells, and B cells by mAbs (anti-B220, CD8, and CD62L, or anti-CD8α, CD8β, and Me114) bound to magnetic microbeads, or to plastic. The purified cells were stimulated either by the anti-CD3 KT3 mAb (KT/7, KT/12, KT/22, KT/23), or by an anti-Vβ8.2 mAb (Vβ/9), and addition of IL-2 or IL-2 and IL-7. After 4-5 days of culture the cells were fused with BW5147 thymoma cells. The VII68, VIII24, XVI9, and XV104 diverse TCR hybridomas were generated from CD4^+ T cells from class 110 mice, as described previously (Cardell, S. et al., J. Exp. Med., 182:993-1004 (1995)). The DN32D3 hybridoma was derived as described (Lantz, O., and Bendelac, A., J. Exp. Med., 180:1097-106 (1994).
(§2) To test for recognition of the mCD1d fusion protein and purified or synthetic antigens, 96 well protein A coated plates (Pierce Chemical Company) were incubated with 400-600 ng/well of the fusion protein or a negative control IgG2a antibody, RPC5.4 or UPC10, in PBS, at pH 7.2. Lipid antigens were diluted into PBS and added where specified at the indicated molar ratio of antigen to fusion protein, (when not specified the ratio was 40:1). Protein A plates containing the fusion protein and antigen were incubated 24-48 hr at 37° C., then washed three times with 200 μl/well sterile PBS, pH 7.2, and two times with 200 μl/well sterile culture medium (containing RPMI supplemented with L-glutamine and penicillin/streptomycin, Life Technologies, Gaithersburg, Md., and 10% bovine calf serum, Hyclone Laboratories, Logan, Utah). For assays in which the PI was phospholipase treated, it was first diluted into 0.01M Tris, 0.15M NaCl, pH 7.5, containing 0.25 U PI-specific phospholipase C or 0.5 U phospholipase D (Sigma, St Louis, Mo.), and incubated 30 minutes at room temperature, then added to the protein A plates as described above. For assays in which the pH was varied during antigen incubation with the fusion protein, the fusion protein and α-GalCer were diluted into a 20 mM citrate/phosphate buffer of the specified pH, which contained 0.15 M NaCl, and after incubation, the samples were neutralized by addition of 1M Tris, pH 7.5. Hybridoma cells were added to fusion protein/antigen treated plates at a concentration of 1×10^5 cells/well, in a total volume of 150 μl/well. Assays were performed using 2-6 replicate wells. In some assays, an anti-mCD1d blocking antibody (19G11) was included at a final concentration of 20 μg/ml. The plates were incubated at 37° C. for 16-20 hr, and culture supernatants were withdrawn for analysis. Each experiment was performed at least three times.
(§3) IL-2 secreted in the hybridoma stimulation assays was quantitated in a double antibody sandwich ELISA, by comparison to a standard curve of purified murine IL-2 (Pharmingen, San Diego, Calif.). Hybridoma plate stimulation supernatants (used either neat or diluted) and serially diluted IL-2 standards were added to 96 well ELISA plates coated with a rat anti-mouse IL-2 capture antibody (Pharmingen).

KT/23 hybridoma = settings: KT/23 NKT hybridoma; plate-bound mCD1d-IgGFc2a fusion protein preincubated with lipid antigen
Excerpt: as §1, §2
as §3, with “(Pharmingen). […]” for “(Pharmingen).”

Vβ/9 hybridoma = settings: Vβ/9 NKT hybridoma; plate-bound mCD1d-IgGFc2a fusion protein preincubated with lipid antigen
Excerpt: as §1, §2
as §3, with “(Pharmingen). […]” for “(Pharmingen).”

14S.7.N hybridoma = settings: 14S.7.N diverse TCR hybridoma; plate-bound mCD1d-IgGFc2a fusion protein preincubated with lipid antigen
Excerpt: as §1, §2
as §3, with “(Pharmingen). […]” for “(Pharmingen).”

24.9.E hybridoma = settings: 24.9 E NKT hybridoma; plate-bound mCD1d-IgGFc2a fusion protein preincubated with lipid antigen
Excerpt: as §1, §2
as §3, with “(Pharmingen). […]” for “(Pharmingen).”

VIII24 hybridoma = settings: VIII24 diverse TCR hybridoma; plate-bound mCD1d-IgGFc2a fusion protein preincubated with lipid antigen
Excerpt: as §1, §2
as §3, with “(Pharmingen). […]” for “(Pharmingen).”

KT/22 hybridoma = settings: KT/22 NKT hybridoma; plate-bound mCD1d-IgGFc2a fusion protein preincubated with lipid antigen
Excerpt: as §1, §2
as §3, with “(Pharmingen). […]” for “(Pharmingen).”

KT/12 hybridoma = settings: KT/12 NKT hybridoma; plate-bound mCD1d-IgGFc2a fusion protein preincubated with lipid antigen
Excerpt: as §1, §2
as §3, with “(Pharmingen). […]” for “(Pharmingen).”

14S.10.C hybridoma = settings: 14S.10 C diverse TCR hybridoma; plate-bound mCD1d-IgGFc2a fusion protein preincubated with lipid antigen
Excerpt: as §1, §2
as §3, with “(Pharmingen). […]” for “(Pharmingen).”

KT/7 hybridoma = settings: KT/7 NKT hybridoma; plate-bound mCD1d-IgGFc2a fusion protein preincubated with lipid antigen
Excerpt: as §1, §2
as §3, with “(Pharmingen). […]” for “(Pharmingen).”

XV104 hybridoma = settings: XV104 diverse TCR hybridoma; plate-bound mCD1d-IgGFc2a fusion protein preincubated with lipid antigen
Excerpt: as §1, §2
as §3, with “(Pharmingen). […]” for “(Pharmingen).”

XV19 hybridoma = settings: XV19 diverse TCR hybridoma; plate-bound mCD1d-IgGFc2a fusion protein preincubated with lipid antigen
Excerpt: as §1, §2
as §3, with “(Pharmingen). […]” for “(Pharmingen).”

DN32D3 hybridoma = settings: DN32D3 NKT hybridoma; plate-bound mCD1d-IgGFc2a fusion protein preincubated with lipid antigen
Excerpt: as §1, §2
as §3, with “(Pharmingen). […]” for “(Pharmingen).”

14S.15.A hybridoma = settings: 14S.15.A diverse TCR hybridoma; plate-bound mCD1d-IgGFc2a fusion protein preincubated with lipid antigen
Excerpt: as §1, §2
as §3, with “(Pharmingen). […]” for “(Pharmingen).”

24.7.C hybridoma = settings: 24 7.C NKT hybridoma; plate-bound mCD1d-IgGFc2a fusion protein preincubated with lipid antigen
Excerpt: as §1, §2
as §3, with “(Pharmingen). […]” for “(Pharmingen).”

VII68 hybridoma = settings: VII68 diverse TCR hybridoma; plate-bound mCD1d-IgGFc2a fusion protein preincubated with lipid antigen
Excerpt: as §1, §2
as §3, with “(Pharmingen). […]” for “(Pharmingen).”

14S.6.A hybridoma = settings: 14S.6.A diverse TCR hybridoma; plate-bound mCD1d-IgGFc2a fusion protein preincubated with lipid antigen
Excerpt: as §1, §2
as §3, with “(Pharmingen). […]” for “(Pharmingen).”

Row | Compound | IL-2 secretion (24.8.A hybridoma) | IL-2 secretion (KT/23 hybridoma) | IL-2 secretion (Vβ/9 hybridoma) | IL-2 secretion (14S.7.N hybridoma) | IL-2 secretion (24.9.E hybridoma) | IL-2 secretion (VIII24 hybridoma) | IL-2 secretion (KT/22 hybridoma) | IL-2 secretion (KT/12 hybridoma) | IL-2 secretion (14S.10.C hybridoma) | IL-2 secretion (KT/7 hybridoma) | IL-2 secretion (XV104 hybridoma) | IL-2 secretion (XV19 hybridoma) | IL-2 secretion (DN32D3 hybridoma) | IL-2 secretion (14S.15.A hybridoma) | IL-2 secretion (24.7.C hybridoma) | IL-2 secretion (VII68 hybridoma) | IL-2 secretion (14S.6.A hybridoma) | IL-2 response to mCD1d fusion protein pre-treated with purified or synthetic lipid (24.8.A hybridoma)
1 | disialoganglioside [GD1a] | 0 (A “0” indicates a mean of less than 50 pg/ml IL-2 was secreted) | 0 (A “0” indicates a mean of less than 50 pg/ml IL-2 was secreted) | 0 (A “0” indicates a mean of less than 50 pg/ml IL-2 was secreted) | 0 (A “0” indicates a mean of less than 50 pg/ml IL-2 was secreted) | 0 (A “0” indicates a mean of less than 50 pg/ml IL-2 was secreted) | 0 (A “0” indicates a mean of less than 50 pg/ml IL-2 was secreted) | 0 (A “0” indicates a mean of less than 50 pg/ml IL-2 was secreted) | 0 (A “0” indicates a mean of less than 50 pg/ml IL-2 was secreted) | 0 (A “0” indicates a mean of less than 50 pg/ml IL-2 was secreted) | 0 (A “0” indicates a mean of less than 50 pg/ml IL-2 was secreted) | 0 (A “0” indicates a mean of less than 50 pg/ml IL-2 was secreted) | 0 (A “0” indicates a mean of less than 50 pg/ml IL-2 was secreted) | 0 (A “0” indicates a mean of less than 50 pg/ml IL-2 was secreted) | 0 (A “0” indicates a mean of less than 50 pg/ml IL-2 was secreted) | 0 (A “0” indicates a mean of less than 50 pg/ml IL-2 was secreted) | 0 (A “0” indicates a mean of less than 50 pg/ml IL-2 was secreted) | 0 (A “0” indicates a mean of less than 50 pg/ml IL-2 was secreted) | 
2 | phosphatidylcholine [PC] | + (“+” indicates 50-250 pg/ml) | 0 (A “0” indicates a mean of less than 50 pg/ml IL-2 was secreted) | 0 (A “0” indicates a mean of less than 50 pg/ml IL-2 was secreted) | 0 (A “0” indicates a mean of less than 50 pg/ml IL-2 was secreted) | 0 (A “0” indicates a mean of less than 50 pg/ml IL-2 was secreted) | 0 (A “0” indicates a mean of less than 50 pg/ml IL-2 was secreted) | 0 (A “0” indicates a mean of less than 50 pg/ml IL-2 was secreted) | 0 (A “0” indicates a mean of less than 50 pg/ml IL-2 was secreted) | 0 (A “0” indicates a mean of less than 50 pg/ml IL-2 was secreted) | 0 (A “0” indicates a mean of less than 50 pg/ml IL-2 was secreted) | 0 (A “0” indicates a mean of less than 50 pg/ml IL-2 was secreted) | 0 (A “0” indicates a mean of less than 50 pg/ml IL-2 was secreted) | 0 (A “0” indicates a mean of less than 50 pg/ml IL-2 was secreted) | 0 (A “0” indicates a mean of less than 50 pg/ml IL-2 was secreted) | 0 (A “0” indicates a mean of less than 50 pg/ml IL-2 was secreted) | 0 (A “0” indicates a mean of less than 50 pg/ml IL-2 was secreted) | 0 (A “0” indicates a mean of less than 50 pg/ml IL-2 was secreted) | did not reproducibly significantly enhance reactivity
3 | CCCCCCCCCCCCCCCC(=O)OCC(COP(=O)(O)O)OC(=O)CCCCCCCCCCCCCCC (stereo not shown) [PA, phosphatidic acid] | + (“+” indicates 50-250 pg/ml) | 0 (A “0” indicates a mean of less than 50 pg/ml IL-2 was secreted) | 0 (A “0” indicates a mean of less than 50 pg/ml IL-2 was secreted) | 0 (A “0” indicates a mean of less than 50 pg/ml IL-2 was secreted) | 0 (A “0” indicates a mean of less than 50 pg/ml IL-2 was secreted) | 0 (A “0” indicates a mean of less than 50 pg/ml IL-2 was secreted) | 0 (A “0” indicates a mean of less than 50 pg/ml IL-2 was secreted) | 0 (A “0” indicates a mean of less than 50 pg/ml IL-2 was secreted) |  | 0 (A “0” indicates a mean of less than 50 pg/ml IL-2 was secreted) | 0 (A “0” indicates a mean of less than 50 pg/ml IL-2 was secreted) | 0 (A “0” indicates a mean of less than 50 pg/ml IL-2 was secreted) | 0 (A “0” indicates a mean of less than 50 pg/ml IL-2 was secreted) | 0 (A “0” indicates a mean of less than 50 pg/ml IL-2 was secreted) | 0 (A “0” indicates a mean of less than 50 pg/ml IL-2 was secreted) | 0 (A “0” indicates a mean of less than 50 pg/ml IL-2 was secreted) | 0 (A “0” indicates a mean of less than 50 pg/ml IL-2 was secreted) | little or no stimulation
